Here are results for five molecules from ChEMBL document CHEMBL5223099, “Covalent cannabinoid receptor ligands - structural insight and selectivity challenges” (RSC Med Chem, 2022).

Experiment [1] addresses T1, Cannabinoid receptor 2 (Homo sapiens, UniProt P34972). In words: Antagonist activity at human CB2R assessed as beta arrestin-2 recruitment by measuring inhibition constant. A general note: Arrestin recruitment assays detect the binding of arrestin to an activated receptor.
Experiment [2] concerns the target T2, Cannabinoid receptor 1 (Homo sapiens, UniProt P21554). In words: Antagonist activity at human CB1R assessed as beta arrestin-2 recruitment by measuring inhibition constant.
In experiment [3] the target is Cannabinoid receptor 1 (Rattus norvegicus, UniProt P20272). In words: Antagonist activity at rat CB1R expressed in CHO cells assessed as inhibition of forskolin stimulated cyclic AMP production. The format is cell-based.
Cannabinoid receptor 1 (Rattus norvegicus, UniProt P20272), sequence (P20272 whole entry): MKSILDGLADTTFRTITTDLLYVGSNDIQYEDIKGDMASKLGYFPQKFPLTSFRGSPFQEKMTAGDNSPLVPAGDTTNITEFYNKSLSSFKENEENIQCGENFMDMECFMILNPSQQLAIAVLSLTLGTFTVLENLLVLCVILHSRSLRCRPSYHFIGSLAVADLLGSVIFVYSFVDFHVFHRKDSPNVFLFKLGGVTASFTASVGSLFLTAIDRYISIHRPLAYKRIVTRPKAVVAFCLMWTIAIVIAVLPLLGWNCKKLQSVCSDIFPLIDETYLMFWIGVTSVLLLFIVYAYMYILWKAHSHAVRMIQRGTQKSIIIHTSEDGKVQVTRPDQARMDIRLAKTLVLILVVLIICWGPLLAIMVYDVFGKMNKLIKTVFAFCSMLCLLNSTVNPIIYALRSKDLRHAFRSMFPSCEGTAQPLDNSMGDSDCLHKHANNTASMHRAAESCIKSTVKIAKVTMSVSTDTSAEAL
Experiment [4] has as its target T2, Cannabinoid receptor 1. In words: Displacement of [3H]- CP55940 from human CB1R expressed in HEK293F cells assessed as inhibition constant incubated for 1 hr by scintillation counter analysis. As to conditions: filed as antagonist. It counts as cell-based. A general note: Displacement assays read how much labelled ligand stays bound in the presence of the test substance.

Experiment [5] deals with T2, Cannabinoid receptor 1. In words: Binding affinity to CB1R (unknown origin) assessed as inhibition constant. The following applies: filed as antagonist.
The target of experiment [6] is T1, Cannabinoid receptor 2. In words: Binding affinity to wild type human CB2R expressed in HEK293 cells assessed as inhibition constant. The format is cell-based.

T2 sequence (P21554 whole entry): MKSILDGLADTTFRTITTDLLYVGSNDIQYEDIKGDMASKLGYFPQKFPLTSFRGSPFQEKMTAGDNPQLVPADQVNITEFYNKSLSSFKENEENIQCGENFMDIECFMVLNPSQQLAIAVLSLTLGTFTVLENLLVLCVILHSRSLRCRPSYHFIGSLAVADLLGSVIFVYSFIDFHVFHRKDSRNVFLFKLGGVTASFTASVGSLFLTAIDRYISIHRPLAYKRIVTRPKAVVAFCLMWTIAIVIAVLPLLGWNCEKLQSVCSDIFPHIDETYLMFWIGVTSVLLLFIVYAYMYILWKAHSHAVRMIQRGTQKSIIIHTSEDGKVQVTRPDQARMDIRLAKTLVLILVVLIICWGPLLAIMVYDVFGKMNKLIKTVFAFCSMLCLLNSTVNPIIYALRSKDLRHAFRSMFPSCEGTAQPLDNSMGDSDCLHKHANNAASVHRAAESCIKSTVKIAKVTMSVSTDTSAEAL
T1 sequence (P34972 whole entry): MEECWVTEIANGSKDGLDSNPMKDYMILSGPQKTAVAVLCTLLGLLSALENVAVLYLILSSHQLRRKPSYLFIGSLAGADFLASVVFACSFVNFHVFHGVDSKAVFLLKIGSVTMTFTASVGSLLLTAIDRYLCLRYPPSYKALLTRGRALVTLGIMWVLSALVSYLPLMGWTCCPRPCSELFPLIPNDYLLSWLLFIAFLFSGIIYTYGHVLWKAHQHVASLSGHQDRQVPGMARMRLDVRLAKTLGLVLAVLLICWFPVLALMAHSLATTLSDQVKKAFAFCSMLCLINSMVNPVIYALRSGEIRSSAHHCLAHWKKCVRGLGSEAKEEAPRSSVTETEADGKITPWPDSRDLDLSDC

With `Cc1c(C(=O)NC23CC4CC(CC(C4)C2)C3)nn(CCCCCO)c1-c1ccccc1`, the Ki turned out to be 0.075 nM in experiment [1] and 13 nM in experiment [2].

In the case of `CCCCCCC(C)(C)c1cc(OC)c([C@H]2C=C(CO)[C@H]3C[C@@H]2C3(C)C)c(OC)c1`, in experiment [3], the Ki is more than 10000 nM.

As to `Cc1c(C(=O)NN2CCCCC2)nn(-c2ccc(Cl)cc2Cl)c1-c1ccc(C#CCCO[N+](=O)[O-])cc1`, the K in experiment [4] stood at 5.1 nM.

On to `Cc1c(C(=O)NC23CC4CC(CC(C4)C2)C3)nn(CCCCSC#N)c1-c1ccccc1`, for which the K in experiment [5] came to 5.76 nM.

Take `CCCCCn1nc(C(=O)NC23CC4CC(CC(C4)C2)C3)c(C)c1-c1ccccc1`: the Ki in experiment [6] came to 0.63 nM.

What is called Ki is a measure of affinity in units of concentration, obtained from inhibition or displacement.
